This test concerns the target Phospholipid-transporting ATPase ABCA1 (Mus musculus, UniProt P41233). The test can be described thus: Induction of ABCA1-mediated [3H]cholesterol efflux in mouse RAW 264.7 macrophages after 24 hrs.

Molecules are shown by their SMILES.

Phospholipid-transporting ATPase ABCA1, sequence (P41233 whole entry): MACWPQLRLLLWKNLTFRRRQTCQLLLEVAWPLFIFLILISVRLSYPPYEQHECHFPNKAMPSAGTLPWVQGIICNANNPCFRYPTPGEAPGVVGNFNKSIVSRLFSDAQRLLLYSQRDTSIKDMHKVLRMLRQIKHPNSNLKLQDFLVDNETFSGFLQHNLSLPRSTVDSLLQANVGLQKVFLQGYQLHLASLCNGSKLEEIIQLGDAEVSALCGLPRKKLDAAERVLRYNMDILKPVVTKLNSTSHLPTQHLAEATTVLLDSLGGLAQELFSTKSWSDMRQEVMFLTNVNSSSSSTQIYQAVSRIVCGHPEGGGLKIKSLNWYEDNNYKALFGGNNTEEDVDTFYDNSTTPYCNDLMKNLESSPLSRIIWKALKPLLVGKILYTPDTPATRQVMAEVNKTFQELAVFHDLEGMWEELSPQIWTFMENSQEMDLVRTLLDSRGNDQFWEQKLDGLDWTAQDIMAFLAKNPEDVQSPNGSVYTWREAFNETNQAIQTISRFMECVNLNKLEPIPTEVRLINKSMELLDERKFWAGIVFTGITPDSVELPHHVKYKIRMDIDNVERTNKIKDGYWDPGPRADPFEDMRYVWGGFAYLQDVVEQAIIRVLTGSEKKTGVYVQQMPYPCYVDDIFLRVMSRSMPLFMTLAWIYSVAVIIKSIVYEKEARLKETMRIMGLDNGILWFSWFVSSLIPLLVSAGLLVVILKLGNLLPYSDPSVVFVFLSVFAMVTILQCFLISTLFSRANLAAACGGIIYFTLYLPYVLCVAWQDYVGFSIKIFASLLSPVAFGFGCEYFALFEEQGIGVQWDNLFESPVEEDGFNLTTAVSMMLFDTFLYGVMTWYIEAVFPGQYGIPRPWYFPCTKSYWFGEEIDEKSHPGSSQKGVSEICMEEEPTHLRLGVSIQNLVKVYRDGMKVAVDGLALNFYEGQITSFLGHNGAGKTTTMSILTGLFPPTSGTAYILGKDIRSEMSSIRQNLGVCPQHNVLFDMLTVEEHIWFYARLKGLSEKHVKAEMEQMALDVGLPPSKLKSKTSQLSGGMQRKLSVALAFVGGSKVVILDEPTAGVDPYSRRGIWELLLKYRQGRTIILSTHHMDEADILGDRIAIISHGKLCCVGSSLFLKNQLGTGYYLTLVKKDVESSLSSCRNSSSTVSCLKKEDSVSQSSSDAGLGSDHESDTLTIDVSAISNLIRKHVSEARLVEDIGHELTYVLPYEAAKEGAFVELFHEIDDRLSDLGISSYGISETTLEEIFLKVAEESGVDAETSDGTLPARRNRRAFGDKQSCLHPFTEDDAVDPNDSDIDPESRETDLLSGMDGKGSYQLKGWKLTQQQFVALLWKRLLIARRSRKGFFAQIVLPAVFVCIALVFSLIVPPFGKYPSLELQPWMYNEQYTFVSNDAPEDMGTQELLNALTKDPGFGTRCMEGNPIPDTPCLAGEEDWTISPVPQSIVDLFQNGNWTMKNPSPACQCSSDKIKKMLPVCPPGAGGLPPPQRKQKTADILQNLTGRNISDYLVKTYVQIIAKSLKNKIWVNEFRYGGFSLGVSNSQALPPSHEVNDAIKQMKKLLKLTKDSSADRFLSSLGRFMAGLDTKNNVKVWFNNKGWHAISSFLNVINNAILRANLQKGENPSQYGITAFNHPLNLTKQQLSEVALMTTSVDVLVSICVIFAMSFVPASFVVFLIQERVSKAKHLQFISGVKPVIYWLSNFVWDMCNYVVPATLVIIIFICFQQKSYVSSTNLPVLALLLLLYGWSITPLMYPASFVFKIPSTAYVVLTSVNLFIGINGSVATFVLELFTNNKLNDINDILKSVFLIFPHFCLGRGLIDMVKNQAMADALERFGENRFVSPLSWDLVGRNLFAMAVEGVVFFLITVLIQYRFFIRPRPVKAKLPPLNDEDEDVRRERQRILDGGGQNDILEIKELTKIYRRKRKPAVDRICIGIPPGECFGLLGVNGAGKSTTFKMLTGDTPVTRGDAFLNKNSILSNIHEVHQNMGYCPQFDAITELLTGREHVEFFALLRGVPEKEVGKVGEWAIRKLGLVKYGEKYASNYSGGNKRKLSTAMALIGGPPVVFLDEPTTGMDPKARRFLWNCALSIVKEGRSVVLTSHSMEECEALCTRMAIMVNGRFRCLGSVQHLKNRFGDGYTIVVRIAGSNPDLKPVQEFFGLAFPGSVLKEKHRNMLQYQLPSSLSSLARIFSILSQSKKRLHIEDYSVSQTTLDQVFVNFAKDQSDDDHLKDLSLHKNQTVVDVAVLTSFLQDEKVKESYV

For orientation: EC50 means the concentration giving half of the maximal effect. Regarding `C=CCCCCC[C@H](NC(=O)[C@H](CCC(N)=O)NC(=O)[C@H](CCCCN)NC(=O)[C@H](CC(C)C)NC(=O)[C@H](C)NC(=O)[C@H](CCC(=O)O)NC(=O)[C@H](CC(C)C)NC(=O)[C@H](CCC(=O)O)NC(=O)[C@H](CCC(=O)O)NC(=O)[C@H](CC(N)=O)NC(=O)[C@H](CC(C)C)NC(=O)[C@H](CCCCN)NC(=O)[C@H](CCC(=O)O)NC(=O)[C@H](CCCNC(=N)N)NC(=O)[C@H](Cc1ccccc1)NC(=O)[C@H](CCC(=O)O)NC(=O)[C@H](CC(=O)O)NC(=O)[C@H](CC(C)C)NC(=O)[C@@H](NC(=O)[C@@H]1CCCN1C(C)=O)C(C)C)C(=O)N[C@@H](CC(C)C)C(=O)N[C@@H](CCCCN)C(N)=O`, the EC50 is greater than 100 µM.
In turn, `C=CCCCCC[C@@H](NC(=O)[C@@H]1CCCN1C(C)=O)C(=O)N[C@@H](CC(C)C)C(=O)N[C@@H](CC(=O)O)C(=O)N[C@@H](CCC(=O)O)C(=O)N[C@@H](Cc1ccccc1)C(=O)N[C@@H](CCCNC(=N)N)C(=O)N[C@@H](CCC(=O)O)C(=O)N[C@@H](CCCCN)C(=O)N[C@@H](CC(C)C)C(=O)N[C@@H](CC(N)=O)C(=O)N[C@@H](CCC(=O)O)C(=O)N[C@@H](CCC(=O)O)C(=O)N[C@@H](CC(C)C)C(=O)N[C@@H](CCC(=O)O)C(=O)N[C@@H](C)C(=O)N[C@@H](CC(C)C)C(=O)N[C@@H](CCCCN)C(=O)N[C@@H](CCC(N)=O)C(=O)N[C@@H](CCCCN)C(=O)N[C@@H](CC(C)C)C(=O)N[C@@H](CCCCN)C(N)=O` had an EC50 greater than 100 µM.
As for `C=CCCCCC[C@@H](NC(=O)[C@H](CCC(=O)O)NC(=O)[C@H](CC(=O)O)NC(=O)[C@H](CC(C)C)NC(=O)[C@@H](NC(=O)[C@@H]1CCCN1C(C)=O)C(C)C)C(=O)N[C@@H](CCCNC(=N)N)C(=O)N[C@@H](CCC(=O)O)C(=O)N[C@@H](CCCCN)C(=O)N[C@@H](CC(C)C)C(=O)N[C@@H](CC(N)=O)C(=O)N[C@@H](CCC(=O)O)C(=O)N[C@@H](CCC(=O)O)C(=O)N[C@@H](CC(C)C)C(=O)N[C@@H](CCC(=O)O)C(=O)N[C@@H](C)C(=O)N[C@@H](CC(C)C)C(=O)N[C@@H](CCCCN)C(=O)N[C@@H](CCC(N)=O)C(=O)N[C@@H](CCCCN)C(=O)N[C@@H](CC(C)C)C(=O)N[C@@H](CCCCN)C(N)=O`, the figure is greater than 100 µM; as for `C=CCCCCC[C@@H](NC(=O)[C@H](CCC(=O)O)NC(=O)[C@H](CCCNC(=N)N)NC(=O)[C@H](Cc1ccccc1)NC(=O)[C@H](CCC(=O)O)NC(=O)[C@H](CC(=O)O)NC(=O)[C@H](CC(C)C)NC(=O)[C@@H](NC(=O)[C@@H]1CCCN1C(C)=O)C(C)C)C(=O)N[C@@H](CC(C)C)C(=O)N[C@@H](CC(N)=O)C(=O)N[C@@H](CCC(=O)O)C(=O)N[C@@H](CCC(=O)O)C(=O)N[C@@H](CC(C)C)C(=O)N[C@@H](CCC(=O)O)C(=O)N[C@@H](C)C(=O)N[C@@H](CC(C)C)C(=O)N[C@@H](CCCCN)C(=O)N[C@@H](CCC(N)=O)C(=O)N[C@@H](CCCCN)C(=O)N[C@@H](CC(C)C)C(=O)N[C@@H](CCCCN)C(N)=O`, greater than 100 µM; as for `C=CCCCCC[C@H](NC(=O)[C@H](C)NC(=O)[C@H](CCC(=O)O)NC(=O)[C@H](CC(C)C)NC(=O)[C@H](CCC(=O)O)NC(=O)[C@H](CCC(=O)O)NC(=O)[C@H](CC(N)=O)NC(=O)[C@H](CC(C)C)NC(=O)[C@H](CCCCN)NC(=O)[C@H](CCC(=O)O)NC(=O)[C@H](CCCNC(=N)N)NC(=O)[C@H](Cc1ccccc1)NC(=O)[C@H](CCC(=O)O)NC(=O)[C@H](CC(=O)O)NC(=O)[C@H](CC(C)C)NC(=O)[C@@H](NC(=O)[C@@H]1CCCN1C(C)=O)C(C)C)C(=O)N[C@@H](CCCCN)C(=O)N[C@@H](CCC(N)=O)C(=O)N[C@@H](CCCCN)C(=O)N[C@@H](CC(C)C)C(=O)N[C@@H](CCCCN)C(N)=O`, greater than 100 µM.
With `C=CCCCCC[C@@H](NC(=O)[C@H](CCCCN)NC(=O)[C@H](CCC(=O)O)NC(=O)[C@H](CCCN=C(N)N)NC(=O)[C@H](Cc1ccccc1)NC(=O)[C@H](CCC(=O)O)NC(=O)[C@H](CC(=O)O)NC(=O)[C@H](CC(C)C)NC(=O)[C@@H](NC(=O)[C@@H]1CCCN1C(C)=O)C(C)C)C(=O)N[C@@H](CC(N)=O)C(=O)N[C@@H](CCC(=O)O)C(=O)N[C@@H](CCC(=O)O)C(=O)N[C@@H](CC(C)C)C(=O)N[C@@H](CCC(=O)O)C(=O)N[C@@H](C)C(=O)N[C@@H](CC(C)C)C(=O)N[C@@H](CCCCN)C(=O)N[C@@H](CCC(N)=O)C(=O)N[C@@H](CCCCN)C(=O)N[C@@H](CC(C)C)C(=O)N[C@@H](CCCCN)C(N)=O`, the EC50 was greater than 100 µM.
`C=CCCCCC[C@@H](NC(=O)[C@H](CCC(=O)O)NC(=O)[C@H](CCC(=O)O)NC(=O)[C@H](CC(N)=O)NC(=O)[C@H](CC(C)C)NC(=O)[C@H](CCCCN)NC(=O)[C@H](CCC(=O)O)NC(=O)[C@H](CCCN=C(N)N)NC(=O)[C@H](Cc1ccccc1)NC(=O)[C@H](CCC(=O)O)NC(=O)[C@H](CC(=O)O)NC(=O)[C@H](CC(C)C)NC(=O)[C@@H](NC(=O)[C@@H]1CCCN1C(C)=O)C(C)C)C(=O)N[C@@H](CCC(=O)O)C(=O)N[C@@H](C)C(=O)N[C@@H](CC(C)C)C(=O)N[C@@H](CCCCN)C(=O)N[C@@H](CCC(N)=O)C(=O)N[C@@H](CCCCN)C(=O)N[C@@H](CC(C)C)C(=O)N[C@@H](CCCCN)C(N)=O` displayed an EC50 greater than 100 µM.
`C=CCCCCC[C@@H](NC(=O)[C@H](C)NC(=O)[C@H](CCC(=O)O)NC(=O)[C@H](CC(C)C)NC(=O)[C@H](CCC(=O)O)NC(=O)[C@H](CCC(=O)O)NC(=O)[C@H](CC(N)=O)NC(=O)[C@H](CC(C)C)NC(=O)[C@H](CCCCN)NC(=O)[C@H](CCC(=O)O)NC(=O)[C@H](CCCN=C(N)N)NC(=O)[C@H](Cc1ccccc1)NC(=O)[C@H](CCC(=O)O)NC(=O)[C@H](CC(=O)O)NC(=O)[C@H](CC(C)C)NC(=O)[C@@H](NC(=O)[C@@H]1CCCN1C(C)=O)C(C)C)C(=O)N[C@@H](CCCCN)C(=O)N[C@@H](CCC(N)=O)C(=O)N[C@@H](CCCCN)C(=O)N[C@@H](CC(C)C)C(=O)N[C@@H](CCCCN)C(N)=O` registered an EC50 greater than 100 µM.
`C=CCCCCC[C@@H](NC(=O)[C@H](CCC(N)=O)NC(=O)[C@H](CCCCN)NC(=O)[C@H](CC(C)C)NC(=O)[C@H](C)NC(=O)[C@H](CCC(=O)O)NC(=O)[C@H](CC(C)C)NC(=O)[C@H](CCC(=O)O)NC(=O)[C@H](CCC(=O)O)NC(=O)[C@H](CC(N)=O)NC(=O)[C@H](CC(C)C)NC(=O)[C@H](CCCCN)NC(=O)[C@H](CCC(=O)O)NC(=O)[C@H](CCCN=C(N)N)NC(=O)[C@H](Cc1ccccc1)NC(=O)[C@H](CCC(=O)O)NC(=O)[C@H](CC(=O)O)NC(=O)[C@H](CC(C)C)NC(=O)[C@@H](NC(=O)[C@@H]1CCCN1C(C)=O)C(C)C)C(=O)N[C@@H](CC(C)C)C(=O)N[C@@H](CCCCN)C(N)=O` yielded an EC50 greater than 100 µM.
Compound `C=CCCC[C@@H](NC(=O)[C@H](CCC(=O)O)NC(=O)[C@H](CC(N)=O)NC(=O)[C@H](CC(C)C)NC(=O)[C@H](CCCCN)NC(=O)[C@H](CCC(=O)O)NC(=O)[C@H](CCCNC(=N)N)NC(=O)[C@H](Cc1ccccc1)NC(=O)[C@H](CCC(=O)O)NC(=O)[C@H](CC(=O)O)NC(=O)[C@H](CC(C)C)NC(=O)[C@@H](NC(=O)[C@@H]1CCCN1C(C)=O)C(C)C)C(=O)N[C@@H](CC(C)C)C(=O)N[C@@H](CCC(=O)O)C(=O)N[C@@H](C)C(=O)N[C@@H](CC(C)C)C(=O)N[C@@H](CCCCN)C(=O)N[C@@H](CCC(N)=O)C(=O)N[C@@H](CCCCN)C(=O)N[C@@H](CC(C)C)C(=O)N[C@@H](CCCCN)C(N)=O` registered an EC50 greater than 100 µM.
Compound `C=CCCCCC[C@H](NC(=O)[C@H](CCC(=O)O)NC(=O)[C@H](CC(=O)O)NC(=O)[C@H](CC(C)C)NC(=O)[C@@H](NC(=O)[C@@H]1CCCN1C(C)=O)C(C)C)C(=O)N[C@@H](CCCNC(=N)N)C(=O)N[C@@H](CCC(=O)O)C(=O)N[C@@H](CCCCN)C(=O)N[C@@H](CC(C)C)C(=O)N[C@@H](CC(N)=O)C(=O)N[C@@H](CCC(=O)O)C(=O)N[C@@H](CCC(=O)O)C(=O)N[C@@H](CC(C)C)C(=O)N[C@@H](CCC(=O)O)C(=O)N[C@@H](C)C(=O)N[C@@H](CC(C)C)C(=O)N[C@@H](CCCCN)C(=O)N[C@@H](CCC(N)=O)C(=O)N[C@@H](CCCCN)C(=O)N[C@@H](CC(C)C)C(=O)N[C@@H](CCCCN)C(N)=O` came in with an EC50 greater than 100 µM.
Turning to `C=CCCCCC[C@H](NC(=O)[C@H](CCC(=O)O)NC(=O)[C@H](CCCN=C(N)N)NC(=O)[C@H](Cc1ccccc1)NC(=O)[C@H](CCC(=O)O)NC(=O)[C@H](CC(=O)O)NC(=O)[C@H](CC(C)C)NC(=O)[C@@H](NC(=O)[C@@H]1CCCN1C(C)=O)C(C)C)C(=O)N[C@@H](CC(C)C)C(=O)N[C@@H](CC(N)=O)C(=O)N[C@@H](CCC(=O)O)C(=O)N[C@@H](CCC(=O)O)C(=O)N[C@@H](CC(C)C)C(=O)N[C@@H](CCC(=O)O)C(=O)N[C@@H](C)C(=O)N[C@@H](CC(C)C)C(=O)N[C@@H](CCCCN)C(=O)N[C@@H](CCC(N)=O)C(=O)N[C@@H](CCCCN)C(=O)N[C@@H](CC(C)C)C(=O)N[C@@H](CCCCN)C(N)=O`, the EC50 is greater than 100 µM.
Compound `C=CCCCCC[C@H](NC(=O)[C@H](CCCCN)NC(=O)[C@H](CCC(=O)O)NC(=O)[C@H](CCCNC(=N)N)NC(=O)[C@H](Cc1ccccc1)NC(=O)[C@H](CCC(=O)O)NC(=O)[C@H](CC(=O)O)NC(=O)[C@H](CC(C)C)NC(=O)[C@@H](NC(=O)[C@@H]1CCCN1C(C)=O)C(C)C)C(=O)N[C@@H](CC(N)=O)C(=O)N[C@@H](CCC(=O)O)C(=O)N[C@@H](CCC(=O)O)C(=O)N[C@@H](CC(C)C)C(=O)N[C@@H](CCC(=O)O)C(=O)N[C@@H](C)C(=O)N[C@@H](CC(C)C)C(=O)N[C@@H](CCCCN)C(=O)N[C@@H](CCC(N)=O)C(=O)N[C@@H](CCCCN)C(=O)N[C@@H](CC(C)C)C(=O)N[C@@H](CCCCN)C(N)=O` displayed an EC50 greater than 100 µM.
Turning to `C=CCCCCC[C@H](NC(=O)[C@H](CCC(=O)O)NC(=O)[C@H](CCC(=O)O)NC(=O)[C@H](CC(N)=O)NC(=O)[C@H](CC(C)C)NC(=O)[C@H](CCCCN)NC(=O)[C@H](CCC(=O)O)NC(=O)[C@H](CCCNC(=N)N)NC(=O)[C@H](Cc1ccccc1)NC(=O)[C@H](CCC(=O)O)NC(=O)[C@H](CC(=O)O)NC(=O)[C@H](CC(C)C)NC(=O)[C@@H](NC(=O)[C@@H]1CCCN1C(C)=O)C(C)C)C(=O)N[C@@H](CCC(=O)O)C(=O)N[C@@H](C)C(=O)N[C@@H](CC(C)C)C(=O)N[C@@H](CCCCN)C(=O)N[C@@H](CCC(N)=O)C(=O)N[C@@H](CCCCN)C(=O)N[C@@H](CC(C)C)C(=O)N[C@@H](CCCCN)C(N)=O`, the half-maximal effective concentration (EC50) is greater than 100 µM.

For the origin of these results see ChEMBL document CHEMBL1629456, “ApoA-I mimetic peptides promote pre-β HDL formation in vivo causing remodeling of HDL and triglyceride accumulation at higher dose” (Bioorg Med Chem, 2010).
